Tested on: HIV-1 (strain LAY-1)
Experiment: Inhibition of HIV virus replication in human peripheral blood mononuclear (PBM) cells
Type: cell-based
Settings: Human immunodeficiency virus 1, PBMC, 144 h, supernatant RT activity six days after infection, read-out: IC50, 50% inhibition of replication of HIV
Source text: The group R' in Table 1 represents the cholesterol "tail" of Compound 7 which is connected to the 3'-terminal phosphate through a "linking group" derived from 4-hydroxy-2-hydroxymethylpyrrolidine and carbonyl connecting group. […] The IC50 numbers in Table 1 refer to the concentration of the compound which gives 50% inhibition of replication of HIV in a cell culture of human peripheral blood mononuclear (PBM) cells.
Cell Culture. Human PBM cells from healthy HIV-1 seronegative and hepatitis B virus seronegative donors were isolated by Ficoll-Hypaque discontinuous gradient centrifugation at 1,000× g for 30 minutes, washed twice in phosphate-buffered saline (pH 7.2; PBS), and pelleted at 300× g for 10 min. […]
Viruses. […] The virus was propagated in human PBM cells using RPMI 1640 medium, as described previously (McDougal, J. S., Cort, S. P., Kennedy, M. S. Cabridilla, C. D., Feorino, P. M., Francis, D. P., Hicks, D., Kalyanaramen, V. S. and Martin, L. S. (1985): Immunoassay for the detection and quantitation of infectious human retrovirus, lymphadenopathy-associated virus (LAV). J. Immun. Meth. 76:171-183) without PHA or fungizone and supplemented with 26 units/ml of recombinant interleukin-2 (Cetus Corporation, Emeryville, Calif.), 7 μg/ml DEAE-dextran (Pharmacia, Uppsala, Sweden), and 370 U/ml anti-human leukocyte (alpha) interferon (ICN, Lisle, Ill.). […]

Compound: CO[C@@H]1[C@H](O)[C@@H](CO)O[C@H]1n1cnc2c(=S)n(C)cnc21 [Nucleoside, 9(2'-O-methyl-1-β-D-ribofuranosyl)-1-methyl-6-thiopurine]
- IC50: ~100 µM
